From patent US11945801B2, “Bicyclic aza compounds as muscarinic M1 and/or M4 receptor agonists” (Heptares Therapeutics Limited, priority 2018, dated 2024)
Where two headings read alike, the source gives them in different places.

Key:
Format in all cases: cell-based
[1] = biological target: T1, human muscarinic M1 receptor (Homo sapiens, UniProt P11229); test: Alphascreen Surefire phospho-ERK1/2 functional assay, M1; details: for EC50: agonist 5 min, 37° C.; for Emax: CHO
T1 sequence (P11229 1-460): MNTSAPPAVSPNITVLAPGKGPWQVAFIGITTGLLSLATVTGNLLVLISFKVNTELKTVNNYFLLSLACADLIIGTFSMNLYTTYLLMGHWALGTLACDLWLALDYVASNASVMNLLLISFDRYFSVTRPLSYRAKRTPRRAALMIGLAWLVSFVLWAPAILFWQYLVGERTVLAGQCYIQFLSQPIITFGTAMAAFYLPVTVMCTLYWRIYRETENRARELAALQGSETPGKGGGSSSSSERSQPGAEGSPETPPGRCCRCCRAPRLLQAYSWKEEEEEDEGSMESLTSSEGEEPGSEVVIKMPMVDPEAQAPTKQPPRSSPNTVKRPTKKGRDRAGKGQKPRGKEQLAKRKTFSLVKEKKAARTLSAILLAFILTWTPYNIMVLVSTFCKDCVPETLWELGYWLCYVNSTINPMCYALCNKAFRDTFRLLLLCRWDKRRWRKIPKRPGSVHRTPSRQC
Description: (§1) ERK1/2 phosphorylation is a downstream consequence of both Gq/11 and Gi/o protein coupled receptor activation, making it highly suitable for the assessment of M1, M3 (Gq/11 coupled) and M2, M4 receptors (Gi/o coupled), rather than using different assay formats for different receptor subtypes. CHO cells stably expressing the human muscarinic M1, M2, M3 or M4 receptor were plated (25K/well) onto 96-well tissue culture plates in MEM-alpha+10% dialysed FBS. Once adhered, cells were serum-starved overnight. Agonist stimulation was performed by the addition of 5 μL agonist to the cells for 5 min (37° C.). Media was removed and 50 μL of lysis buffer added. After […], a 4 μL sample was transferred to 384-well plate and 7 μL of detection mixture added.
(§2) Isomer assignment (Isomer 1, Isomer 2, etc.) is based on the retention time of the compound using the separation technique that was performed in the final purification step. By implication, this could be reversed phase HPLC, chiral HPLC or chiral SFC retention time, and this will vary from compound to compound.

[2] = biological target: T2, human muscarinic M2 receptor (Homo sapiens, UniProt P08172); test: Alphascreen Surefire phospho-ERK1/2 functional assay, M2; details: for Emax: CHO
T2 sequence (P08172 1-466): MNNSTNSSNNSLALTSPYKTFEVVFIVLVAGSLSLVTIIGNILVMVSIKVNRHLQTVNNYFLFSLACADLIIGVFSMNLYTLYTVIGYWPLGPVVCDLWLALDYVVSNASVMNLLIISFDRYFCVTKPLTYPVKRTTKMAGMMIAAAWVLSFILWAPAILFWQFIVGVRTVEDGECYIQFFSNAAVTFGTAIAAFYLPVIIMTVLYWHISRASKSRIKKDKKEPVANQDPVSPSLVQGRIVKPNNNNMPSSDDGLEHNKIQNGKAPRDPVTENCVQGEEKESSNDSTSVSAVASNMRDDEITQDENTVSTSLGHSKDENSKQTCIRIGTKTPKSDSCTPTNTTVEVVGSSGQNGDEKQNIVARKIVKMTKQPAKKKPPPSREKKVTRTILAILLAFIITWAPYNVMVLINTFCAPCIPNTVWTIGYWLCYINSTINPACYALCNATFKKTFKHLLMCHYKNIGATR
Description: as §1, §2

[3] = biological target: T3, human muscarinic M3 receptor (Homo sapiens, UniProt P20309); test: Alphascreen Surefire phospho-ERK1/2 functional assay, M3; details: for Emax: CHO
T3 construct: expressed in transfected cells
Description: as §1, §2

[4] = biological target: T4, human muscarinic M4 receptor (Homo sapiens, UniProt P08173); test: Alphascreen Surefire phospho-ERK1/2 functional assay, M4; details: for EC50 / % Emax cf. ACh, M4: CHO cells stably expressing human M4; for EC50: agonist 5 min, 37° C., read-out: pEC50 M4 (converted); for Emax: CHO
T4 construct: expressed in transfected cells
T4 sequence (P08173 1-479): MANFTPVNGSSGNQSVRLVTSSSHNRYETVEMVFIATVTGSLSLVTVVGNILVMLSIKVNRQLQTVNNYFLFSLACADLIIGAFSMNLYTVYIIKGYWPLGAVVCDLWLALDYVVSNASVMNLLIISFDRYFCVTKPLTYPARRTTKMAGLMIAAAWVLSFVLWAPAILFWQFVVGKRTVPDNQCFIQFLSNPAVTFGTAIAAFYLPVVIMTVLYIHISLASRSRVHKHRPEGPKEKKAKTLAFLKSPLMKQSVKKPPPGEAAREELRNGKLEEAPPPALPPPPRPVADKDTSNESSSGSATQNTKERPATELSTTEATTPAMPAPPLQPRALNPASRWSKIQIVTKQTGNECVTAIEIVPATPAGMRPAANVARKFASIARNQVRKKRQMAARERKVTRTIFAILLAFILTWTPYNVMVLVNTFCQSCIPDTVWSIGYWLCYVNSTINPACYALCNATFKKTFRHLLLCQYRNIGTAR
Description: as §1, §2

[5] = CHO cells stably expressing human M1, read-out: pEC50 M1 (converted)
[6] = CHO cells stably expressing human M2, agonist 5 min, 37° C., read-out: pEC50 M2 (converted)
[7] = CHO cells stably expressing human M3, agonist 5 min, 37° C., read-out: pEC50 M3 (converted)
[8] = read-out: % Emax cf. ACh, M1, CHO cells stably expressing human M1, Emax relative to ACh
[9] = read-out: % Emax cf. ACh, M2, CHO cells stably expressing human M2, Emax relative to ACh
[10] = read-out: % Emax cf. ACh, M3, CHO cells stably expressing human M3, Emax relative to ACh
[11] = read-out: % Emax cf. ACh, M4, CHO cells stably expressing human M4, Emax relative to ACh

T3 sequence (P20309 whole entry): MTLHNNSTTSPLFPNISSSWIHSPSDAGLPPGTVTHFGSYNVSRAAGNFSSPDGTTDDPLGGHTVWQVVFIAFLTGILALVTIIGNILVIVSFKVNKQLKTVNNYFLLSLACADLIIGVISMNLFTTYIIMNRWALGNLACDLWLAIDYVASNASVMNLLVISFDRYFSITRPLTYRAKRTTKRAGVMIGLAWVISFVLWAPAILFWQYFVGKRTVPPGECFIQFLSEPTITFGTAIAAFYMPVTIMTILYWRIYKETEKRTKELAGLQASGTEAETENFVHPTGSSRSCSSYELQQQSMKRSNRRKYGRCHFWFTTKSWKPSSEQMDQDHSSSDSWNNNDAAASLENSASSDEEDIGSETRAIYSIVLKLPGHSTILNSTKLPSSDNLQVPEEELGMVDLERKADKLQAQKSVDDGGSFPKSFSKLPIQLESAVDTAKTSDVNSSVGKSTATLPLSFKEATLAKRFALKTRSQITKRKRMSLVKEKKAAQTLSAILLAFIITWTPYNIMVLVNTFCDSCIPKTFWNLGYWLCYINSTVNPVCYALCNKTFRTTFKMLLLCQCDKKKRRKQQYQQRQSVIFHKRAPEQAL

| SMILES | EC50 [1, 5] [nM] | Emax ([1]; read-out: % Emax cf. ACh, M1) [%] | EC50 [2, 6] [nM] | Emax ([2]; read-out: % Emax cf. ACh, M2) [%] | EC50 [3, 7] [nM] | Emax ([3]; read-out: % Emax cf. ACh, M3) [%] | EC50 [4] [nM] | Emax ([4]; read-out: % Emax cf. ACh, M4) [%] | Emax [1, 8] [%] | Emax [2, 9] [%] | Emax [3, 10] [%] | Emax [4, 11] [%] | other results |
| --- | --- | --- | --- | --- | --- | --- | --- | --- | --- | --- | --- | --- | --- |
| CCOC(=O)N1C2CCC1CC(N1CC(CC(=O)N3CCCCC3)C1)C2 (mixture of isomers) [Example 1-4 Isomer mixture, Ethyl-3-(3-(2-oxo-2-(piperidin-1-yl)ethyl)azetidin-1-yl)-8-azabicyclo[3.2.1]octane-8-carboxylate] | 309 | 84 | > 20000 | 21 | > 20000 | 6 | > 20000 | 17 |  |  |  |  |  |
| CCOC(=O)N1C2CCC1CC(N1CC(OC(=O)N3CCCCCC3)C1)C2 (mixture of isomers) [Example 5-1 Isomer mixture, Ethyl 3-(3-((azepane-1-carbonyl)oxy)azetidin-1-yl)-8-azabicyclo[3.2.1]octane-8-carboxylate] |  | 83 |  | 18 |  | 45 | 427 | 39 |  |  |  |  | EC50 ([1]; pEC50 M1, CHO cells stably expressing human M1): 89.1 nM; EC50 [2]: > 20000 nM; EC50 [3]: > 20000 nM |
| CCOC(=O)N1C2CCC1CC(N1CC(CC(=O)N(CC)CC)C1)C2 (single isomer, unassigned) [Example 1-1 Isomer 2, Ethyl-3-(3-(2-(diethylamino)-2-oxoethyl)azetidin-1-yl)-8-azabicyclo[3.2.1]octane-8-carboxylate] | 316 | 100 | 1260 | 58 | > 20000 | 28 | 200 | 85 |  |  |  |  |  |
| CCOC(=O)N1CC2CCC1CC2N1CC(CC(=O)N(CC)CC)C1 (single isomer, unassigned) [Example 2-1 Isomer 1, Ethyl-5-(3-(2-(diethylamino)-2-oxoethyl)azetidin-1-yl)-2-azabicyclo[2.2.2]octane-2-carboxylate] | 209 |  | > 20000 |  | > 20000 |  | > 20000 |  | 67 | 13 | 6 | 9 |  |
| CCOC(=O)N1CC2CCC1CC2N1CC(CC(=O)N(CC)C(C)C)C1 (single isomer, unassigned) [Example 2-2 Isomer 1, Ethyl-5-(3-(2-(ethyl(isopropyl)amino)-2-oxoethyl)azetidin-1-yl)-2-azabicyclo[2.2.2]octane-2-carboxylate] | 19.1 |  | > 20000 |  | > 20000 |  | 257 |  |  | 8 | 12 | 36 | % Emax cf. ACh, M1 ([1]; CHO cells stably expressing human M1, Emax relative to ACh, listed as 2-2 Isomer 1): 95% |
| CCOC(=O)N1CC2CCC1CC2N1CC(CC(=O)N(CC)C(C)C)C1 (single isomer, unassigned) [Example 2-2 Isomer 2, Ethyl-5-(3-(2-(ethyl(isopropyl)amino)-2-oxoethyl)azetidin-1-yl)-2-azabicyclo[2.2.2]octane-2-carboxylate] | 229 |  |  |  |  |  | > 20000 |  |  |  |  |  | % Emax cf. ACh, M1 ([1]; CHO cells stably expressing human M1, Emax relative to ACh, listed as 2-2 Isomer 2): 65%; % Emax cf. ACh, M2 ([2]; CHO cells stably expressing human M2, Emax relative to ACh): 6%; % Emax cf. ACh, M3 ([3]; CHO cells stably expressing human M3, Emax relative to ACh): 7%; % Emax cf. ACh, M4 ([4]; Emax relative to ACh): 31% |
| CCOC(=O)N1CC2CCC1CC2N1CC(CC(=O)N2CCCCC2)C1 (single isomer, unassigned) [Example 2-3 Isomer 1, Ethyl-5-(3-(2-oxo-2-(piperidin-1-yl)ethyl)azetidin-1-yl)-2-azabicyclo[2.2.2]octane-2-carboxylate] | 204 |  | > 20000 |  | > 20000 |  | 6460 |  | 88 | 10 | 9 | 46 |  |
| CCOC(=O)N1CC2CCC1CC2N1CC(CC(=O)N2CCC23CCC3)C1 (single isomer, unassigned) [Example 2-5 Isomer 1, Ethyl-5-(3-(2-oxo-2-(1-azaspiro[3.3]heptan-1-yl)ethyl)azetidin-1-yl)-2-azabicyclo[2.2.2]octane-2-carboxylate] | 110 |  | > 20000 |  | > 20000 |  | > 20000 |  | 64 | 53 | 35 | 23 |  |
| CCOC(=O)N1C2CCCC1CC(N1CC(CC(=O)N3CCCCC3)C1)C2 (single isomer, unassigned) [Example 3-3 Isomer 1, Ethyl-3-(3-(2-oxo-2-(piperidin-1-yl)ethyl)azetidin-1-yl)-9-azabicyclo[3.3.1]nonane-9-carboxylate] | 316 | 117 | > 20000 | 5 | > 20000 | 9 | 1290 | 55 |  |  |  |  |  |
| CCOC(=O)N1CCC2(CC(N3CC(OC(=O)N(CC)CC)C3)C2)C1 (single isomer, unassigned) [Example 4-2 Isomer 2, Ethyl 2-(3-((diethylcarbamoyl)oxy)azetidin-1-yl)-6-azaspiro[3.4]octane-6-carboxylate] | 158 |  | > 20000 |  | > 20000 |  | 282 |  | 105 | 14 | 17 | 89 |  |
| CCOC(=O)N1CC2(CCC(N3CC(OC(=O)N(C)CC)C3)C2)C1 (single isomer, unassigned) [Example 4-4 Isomer 1, Ethyl 6-(3-((ethyl(methyl)carbamoyl)oxy)azetidin-1-yl)-2-azaspiro[3.4]octane-2-carboxylate] | 58.9 |  | > 20000 |  | > 20000 |  | 22.9 |  | 67 | 5 | 0 | 37 |  |
| CCOC(=O)N1CC2(CCC(N3CC(OC(=O)N(CC)CC)C3)C2)C1 (single isomer, unassigned) [Example 4-5 Isomer 1, Ethyl 6-(3-((diethylcarbamoyl)oxy)azetidin-1-yl)-2-azaspiro[3.4]octane-2-carboxylate] | 15.8 |  | > 20000 |  | > 20000 |  | 33.1 |  |  | 6 | 54 |  | % Emax cf. ACh, M1 ([1]; CHO cells stably expressing human M1, Emax relative to ACh, listed as 4-5 Isomer 1): 66%; % Emax cf. ACh, M4 ([4]; Emax relative to ACh, listed as 4-5 Isomer 1): 31% |
